Experimental data as given in patent publication US12129490B2, “Methods for generating hepatocytes and cholangiocytes from pluripotent stem cells” (UNIVERSITY HEALTH NETWORK, priority 2018, dated 2024).
“And” between values parts separate entries of the source, which are not always exact repeats. Equal values may be shown once.

Tests used:
smad2 = details: versus SB431 542; cited from earlier work
human and mouse ESC = details: cited from earlier work
Notch pathway = assay: Hepatoblast co-culture with OP9 in presence of Notch antagonist GSI; type: cell-based, human
Protocol: RT-qPCR-based expression analysis of ALB and CK19 in the hepatoblast-derived cells following co-culture with OP9 in media supplemented with HGF (20 ng/ml), EGF (50 ng/ml), and TGFβ1 (5 ng/ml) in the presence or absence of the gamma-secretase inhibitor (GSI), an antagonist of the Notch pathway. Cells were harvested and analyzed at days 30, 33, and 36 of culture.
FIG. 15B is an RT-qPCR based expression analysis of the Notch target genes HES1, HES5 and HEY1 in hepatoblast-derived cells following culture with or without OP9. Cells were assayed at day 36 of culture. […] This value was set as 1.
To investigate the differentiation of cholangiocyte-like cells, H9-derived day 27 hepatic progenitors were co-cultured with OP 9 cells (Notch signaling donor) in the presence of HGF 20 ng/ml and EGF 50 ng/ml. The H9-derived day 27 hepatic progenitors were derived as in Example 1. When the hepatic progenitor cells received Notch signaling activation from OP-9 cells, the albumin positive cells were completely diminished and turned into CK19 positive cells with an organized branching appearance (FIG. 10a, b).
(§1) To investigate the effect of Notch signaling on cholangiocyte development, we co-cultured the hepatoblast population (day 25) with OP9 stromal cells that are known to express different Notch ligands including Jagged-1^4,5. […] To overcome this problem, we generated 3D aggregates from the day 25 monolayer cells and cultured them on the OP9 stromal cells.
(FIG. 22) Aggregates derived from both lines generated branched structures consisting of CK19^+ALB cells following co-culture with the OP9 stromal cells. As observed with the H9-derived populations, the downregulation of ALB expression and the development of these structures were NOTCH dependent events.

Notch signaling = assay: 3D gel culture of chimeric hepatoblast/OP9 aggregates in presence of GSI; type: cell-based, human; details: 3D collagen/Matrigel gel
Protocol: H9-derived day 25 hepatoblast were mixed (aggregated) with OP9 stromal cells at a ratio of 4:1, in low cluster culture dishes for 48 hours. The chimeric aggregates were embedded in a mixture of type 1 collagen (1.2 mg/ml) and Matrigel (40%) to establish a 3D gel culture. The cultures were maintained over 2 weeks in the media containing of HGF, EGF and TGFβ1 in the presence or absence of GSI.
FIG. 16C is an RT-qPCR based expression analyses of pooled structures that developed in the 3D gels. The cultures were harvested at day 44 and the cells analyzed for expression of genes indicative of the hepatocyte (ALB, AFP and CYP3A7) and cholangiocyte (CK19, Sox9 and CFTR) lineages.
To determine if the branching observed in the OP9 co-cultures is indicative of the initial stages of bile duct development, we next established a culture system to promote the growth of 3D cellular structures. With this approach, chimeric aggregates consisting of day 25 hESC-derived cells and OP9 stromal cells (GFP^+) were cultured in a media mixture consisting of 1.2 mg/ml collagen, 40% Matrigel and HGF, EGF and TGFβ1 (FIG. 23a). Within 2 weeks of culture in these conditions, the aggregates underwent dramatic morphological changes and formed either tubular structures, hollow cysts or a mixture of both (FIG. 16a,b). The cysts were the most abundant structures in these cultures (FIG. 16b). […] The cells in the ducts also expressed the Cystic fibrosis transmembrane conductance regulator (CFTR), a transmembrane channel that is first expressed in the adult biliary tract. As with ZO-1, the CFTR protein was detected predominantly on the apical side of the duct-like structure. Western blot analyses confirmed the presence of the protein in the population generated from the chimeric aggregates (FIG. 23D). […] The lack of hepatic markers, including ALB, AFP and CYP3A7 and the upregulation of expression the cholangiocyte markers CK19, SOX9 and CFTR in these structures was confirmed by RT-qPCR analyses (FIG. 16c). […]

day 44 aggregates = assay: CYP expression in day 44 aggregates with Wnt and MEK/Erk inhibition plus cAMP agonist; type: cell-based, human; details: together with cAMP, relative to adult liver
CYP1A2 = biological target: T1, CYP1A2 (Homo sapiens, UniProt P05177); assay: CYP1A2 activity, phenacetin metabolism by HPLC
T1 sequence (P05177 1-516): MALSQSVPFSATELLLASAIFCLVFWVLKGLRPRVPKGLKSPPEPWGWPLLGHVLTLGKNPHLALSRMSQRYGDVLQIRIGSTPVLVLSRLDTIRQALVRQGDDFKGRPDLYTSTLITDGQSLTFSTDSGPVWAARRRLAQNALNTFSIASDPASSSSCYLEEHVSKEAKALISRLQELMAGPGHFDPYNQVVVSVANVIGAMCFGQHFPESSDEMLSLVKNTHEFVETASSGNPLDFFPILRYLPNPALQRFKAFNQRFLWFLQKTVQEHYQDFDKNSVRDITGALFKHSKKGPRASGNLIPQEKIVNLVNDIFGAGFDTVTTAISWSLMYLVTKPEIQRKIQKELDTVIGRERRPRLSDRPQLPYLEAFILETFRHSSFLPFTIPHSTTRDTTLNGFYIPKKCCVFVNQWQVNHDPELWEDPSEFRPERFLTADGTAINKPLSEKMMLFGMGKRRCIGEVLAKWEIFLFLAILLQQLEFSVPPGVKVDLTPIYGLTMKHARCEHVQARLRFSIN

[1] = system: hPSC-derived hepatoblast aggregates; assay: Growth factor addition to hepatoblast aggregates co-cultured on OP9 stroma; type: cell-based, human; details: for development of CK19+ clusters: OP9 co-culture
Description: as §1

hepatic aggregates = assay: Culture of hepatic aggregates at cAMP stage, HGF and OSM; type: cell-based, human
Protocol: The cell aggregates were cultured in HGF, Dex and OSM until day 32 at which point cAMP was added. […] In some experiments, HGF was also removed from the cultures when cAMP analog and/or cAMP agonist is added.

[2] = OP9 co-culture with HGF, EGF, TGFβ1

Cc1cccc(-c2nn(C(=S)Nc3ccccc3)cc2-c2ccnc3ccccc23)n1 [A83-01]
inhibition of smad2, relative potency (smad2): more potent

O=C1Nc2cc(Br)ccc2/C1=C1/Nc2ccccc2/C1=N\O [BIO, 6-bromo-Indirubin-3′-Oxime]
pluripotency of ESC (human and mouse ESC): maintain pluripotency

CC(C)C[C@H](NC(=O)[C@H](Cc1ccccc1)C[C@@H](O)[C@H](Cc1ccccc1)NC(=O)OC(C)(C)C)C(=O)N[C@@H](Cc1ccccc1)C(N)=O [GSI]
albumin and CK19 positive cells (Notch pathway; 10 μM, H9-derived day 27 progenitors with OP9, HGF 20 ng/ml, EGF 50 ng/ml): albumin and CK19 positive cells were found
ALB expression (Notch pathway; [2]): blocked the downregulation
development of branched structures (Notch pathway; [2]): inhibited
proportion of CK19+ cells (Notch pathway; [2]): reduced
increase in expression of Notch targets HES1, HES5 and HEY1 (Notch pathway; nine days of culture on OP9): block
formation of duct-like structures and cysts (Notch signaling): prevented
expression of genes associated with cholangiocyte development (CK19, Sox9 and CFTR) (Notch signaling; day 44): decrease
expression of hepatocyte markers (ALB, AFP and CYP3A7) (Notch signaling; day 44): increase

O=C(NOC[C@H](O)CO)c1ccc(F)c(F)c1Nc1ccc(I)cc1F [MEK/ErK inhibitor]
levels of CYP3A4 expression (day 44 aggregates): comparable to those found in the adult liver

Cc1c(OCC(F)(F)F)ccnc1C[S+]([O-])c1nc2ccccc2[nH]1 (stereo not drawn) [lansoprazole]
increase in CYP1A2 activity on induction (CYP1A2; 8-Br-cAMP-treated hESC-derived cells, induction 72 hours): 3.4 fold
inducibility of CYP1A2 activity (CYP1A2; H9-derived cells): inducible
inducibility of CYP1A2 activity (CYP1A2; cells not treated with 8-Br-cAMP): not inducible
inducible CYP1A2 activity (CYP1A2; iPSC-derived cells): not detectable
induction of CYP1A2 activity (CYP1A2; two independent primary hepatocyte samples): 18 fold and 9 fold

HGF: hepatocyte growth factor
development of CK19+ clusters [1]: little effect
survival of aggregates (hepatic aggregates; 10 ng/ml (reduced from 20 ng/ml) when cAMP was added): promote survival of the aggregates

OSM: Oncostatin M
induction of expression of Phase 1 CYP enzymes, in particular CYP 3A4 (hepatic aggregates; OSM maintained): inhibitory effect

TGFβ1: transforming growth factor beta 1
development of CK19+ clusters [1]: increase in the size
cholangiocyte branching ([1]; hepatoblasts co-cultured with OP9): promotes cholangiocyte branching
